Laboratory results: ChEMBL document CHEMBL4819069, “Discovery of multifunctional anti-Alzheimer's agents with a unique mechanism of action including inhibition of the enzyme butyrylcholinesterase and γ-aminobutyric acid transporters” (Eur J Med Chem, 2021)

Key:
Beta-secretase 1 [1] = biological target: T1, Beta-secretase 1 (Homo sapiens, UniProt P56817); settings: dose 50.0 µM, time 60.0 min
Cholinesterase [2] = biological target: T2, Cholinesterase (Homo sapiens, UniProt P06276); assay: Inhibition of human BuchE at 1 uM using butyrylthiocholine as substrate preincubated for 5 mins followed by substrate addition and measured after 5 mins by Ellman's method relative to control; settings: time 10.0 min
[3] = biological target: Acetylcholinesterase (Electrophorus electricus) (UniProt O42275); assay: Inhibition of electric eel AChE at 10 uM using acetylthiocholine as substrate preincubated for 5 mins followed by substrate addition and measured after 5 mins by Ellman's method relative to control; settings: time 10.0 min
Cholinesterase [4] = biological target: Cholinesterase (Equus caballus, UniProt P81908)
Description: Inhibition of equine serum BuChE using butyrylthiocholine as substrate preincubated for 5 mins followed by substrate addition and measured after 5 mins by Ellman's method

[5] = biological target: Amyloid-beta precursor protein (Homo sapiens) (UniProt P05067); assay: Inhibition of HFIP-pretreated amyloid beta (1 to 42) (unknown origin) aggregation at 10 uM after 36 to 48 hrs by thioflavin-T fluorescence assay relative to control; settings: time 36-48 hrs
Beta-secretase 1 [6] = biological target: T1, Beta-secretase 1
[7] = biological target: T3, GABA transporter 4 (Mus musculus) (UniProt P31650); assay: Inhibition of mouse GAT3 expressed in HEK293 cell line assessed as reduction in [3H]GABA uptake at 100 uM incubated for 10 mins relative to control; format: cell-based
T3 sequence (whole entry): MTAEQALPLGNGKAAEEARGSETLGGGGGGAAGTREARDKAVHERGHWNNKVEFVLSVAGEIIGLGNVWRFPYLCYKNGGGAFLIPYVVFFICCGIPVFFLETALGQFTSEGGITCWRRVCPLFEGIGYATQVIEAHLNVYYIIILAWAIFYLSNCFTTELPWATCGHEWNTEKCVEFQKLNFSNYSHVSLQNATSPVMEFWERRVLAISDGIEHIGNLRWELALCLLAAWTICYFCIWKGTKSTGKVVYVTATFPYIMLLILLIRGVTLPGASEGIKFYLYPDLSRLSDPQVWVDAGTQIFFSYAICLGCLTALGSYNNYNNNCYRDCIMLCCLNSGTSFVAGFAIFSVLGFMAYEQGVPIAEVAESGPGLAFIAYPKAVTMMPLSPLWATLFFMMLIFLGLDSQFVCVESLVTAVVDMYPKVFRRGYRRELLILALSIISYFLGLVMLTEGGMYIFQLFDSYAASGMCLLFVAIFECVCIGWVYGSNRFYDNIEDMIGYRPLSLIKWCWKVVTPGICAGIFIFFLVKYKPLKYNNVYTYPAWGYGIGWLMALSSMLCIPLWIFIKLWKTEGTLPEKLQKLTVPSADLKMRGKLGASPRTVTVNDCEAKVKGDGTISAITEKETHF

[8] = biological target: Sodium- and chloride-dependent GABA transporter 1 (Mus musculus) (UniProt P31648); assay: Inhibition of mouse GAT1 expressed in HEK293 cell line assessed as reduction in [3H]GABA uptake at 100 uM incubated for 10 mins relative to control; format: cell-based
[9] = biological target: T4, GABA transporter 3 (Mus musculus) (UniProt P31649); assay: Inhibition of mouse GAT2 expressed in HEK293 cell line assessed as reduction in [3H]GABA uptake at 100 uM incubated for 10 mins relative to control; format: cell-based
T4 sequence (whole entry): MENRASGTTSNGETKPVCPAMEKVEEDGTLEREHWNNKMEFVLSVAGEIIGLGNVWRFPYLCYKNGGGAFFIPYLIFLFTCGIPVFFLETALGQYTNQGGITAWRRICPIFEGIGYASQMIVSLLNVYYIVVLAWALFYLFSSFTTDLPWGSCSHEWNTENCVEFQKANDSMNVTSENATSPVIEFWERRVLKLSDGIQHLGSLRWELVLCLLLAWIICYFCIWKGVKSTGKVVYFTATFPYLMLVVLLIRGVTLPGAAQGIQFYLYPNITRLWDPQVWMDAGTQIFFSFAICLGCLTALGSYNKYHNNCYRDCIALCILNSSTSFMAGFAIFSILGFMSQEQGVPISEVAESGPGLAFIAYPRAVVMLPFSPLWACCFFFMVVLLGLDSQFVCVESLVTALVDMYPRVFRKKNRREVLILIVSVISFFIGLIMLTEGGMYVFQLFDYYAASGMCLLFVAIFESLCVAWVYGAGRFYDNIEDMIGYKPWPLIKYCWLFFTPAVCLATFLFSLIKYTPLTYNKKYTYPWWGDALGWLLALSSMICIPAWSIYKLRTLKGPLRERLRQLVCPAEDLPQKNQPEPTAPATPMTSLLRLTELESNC

[10] = biological target: Sodium- and chloride-dependent GABA transporter 1 (Mus musculus) (UniProt P31648); assay: Inhibition of NO711 binding to mouse GAT1 expressed in HEK cell membranes at 100 uM incubated for 40 mins in presence of NO711 by LC-ESI-MS/MS analysis relative to control; settings: Membrane
Cholinesterase [11] = biological target: T2, Cholinesterase
Description: Inhibition of human BuchE using butyrylthiocholine as substrate preincubated for 5 mins followed by substrate addition and measured after 5 mins by Ellman's method

[12] = biological target: Sodium- and chloride-dependent GABA transporter 1 (Mus musculus, UniProt P31648); assay: Inhibition of mouse GAT1 expressed in HEK293 cell line assessed as reduction in [3H]GABA uptake incubated for 10 mins; format: cell-based
GABA transporter 4 = biological target: T5, GABA transporter 4 (Mus musculus, UniProt P31650); assay: Inhibition of mouse GAT4 expressed in HEK293 cell line assessed as reduction in [3H]GABA uptake incubated for 10 mins; format: cell-based
T5 sequence (P31650 whole entry): T3 sequence (whole entry)

Chain of Acetylcholinesterase (Electrophorus electricus) (O42275 24-633 limits assumed): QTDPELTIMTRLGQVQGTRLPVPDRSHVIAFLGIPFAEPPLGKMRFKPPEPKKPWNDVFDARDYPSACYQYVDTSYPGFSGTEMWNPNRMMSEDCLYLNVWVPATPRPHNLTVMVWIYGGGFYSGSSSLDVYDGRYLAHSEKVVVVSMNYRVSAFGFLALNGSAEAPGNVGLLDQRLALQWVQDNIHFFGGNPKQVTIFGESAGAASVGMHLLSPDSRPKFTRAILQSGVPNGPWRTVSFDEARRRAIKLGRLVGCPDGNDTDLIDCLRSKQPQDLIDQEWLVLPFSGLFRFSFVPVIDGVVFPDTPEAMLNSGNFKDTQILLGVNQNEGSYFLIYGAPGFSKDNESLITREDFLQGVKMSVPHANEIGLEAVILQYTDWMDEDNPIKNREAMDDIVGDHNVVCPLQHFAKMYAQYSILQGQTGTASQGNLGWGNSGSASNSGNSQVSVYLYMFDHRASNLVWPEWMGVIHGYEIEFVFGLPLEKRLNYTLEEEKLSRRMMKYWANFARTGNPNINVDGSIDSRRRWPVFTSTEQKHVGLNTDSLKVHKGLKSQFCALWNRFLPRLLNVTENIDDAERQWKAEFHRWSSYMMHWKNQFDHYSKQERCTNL
T2 sequence (P06276 whole entry): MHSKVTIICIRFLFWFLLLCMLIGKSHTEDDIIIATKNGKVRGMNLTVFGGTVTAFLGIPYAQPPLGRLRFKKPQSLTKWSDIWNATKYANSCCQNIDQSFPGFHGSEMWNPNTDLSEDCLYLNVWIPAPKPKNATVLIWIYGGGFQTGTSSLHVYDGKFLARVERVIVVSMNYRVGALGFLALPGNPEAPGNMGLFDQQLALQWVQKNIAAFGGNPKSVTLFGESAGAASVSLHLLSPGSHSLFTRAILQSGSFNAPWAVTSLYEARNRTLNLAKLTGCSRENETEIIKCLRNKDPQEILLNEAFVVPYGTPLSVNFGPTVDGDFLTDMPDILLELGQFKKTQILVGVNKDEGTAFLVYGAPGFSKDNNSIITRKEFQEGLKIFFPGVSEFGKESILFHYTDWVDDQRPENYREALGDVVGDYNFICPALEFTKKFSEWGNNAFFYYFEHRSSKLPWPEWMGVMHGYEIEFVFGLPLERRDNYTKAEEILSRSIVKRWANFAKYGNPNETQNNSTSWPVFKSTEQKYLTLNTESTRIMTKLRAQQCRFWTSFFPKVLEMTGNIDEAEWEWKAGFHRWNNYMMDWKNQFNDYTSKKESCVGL
Chain of Cholinesterase (Equus caballus, UniProt P81908) (P81908 whole entry): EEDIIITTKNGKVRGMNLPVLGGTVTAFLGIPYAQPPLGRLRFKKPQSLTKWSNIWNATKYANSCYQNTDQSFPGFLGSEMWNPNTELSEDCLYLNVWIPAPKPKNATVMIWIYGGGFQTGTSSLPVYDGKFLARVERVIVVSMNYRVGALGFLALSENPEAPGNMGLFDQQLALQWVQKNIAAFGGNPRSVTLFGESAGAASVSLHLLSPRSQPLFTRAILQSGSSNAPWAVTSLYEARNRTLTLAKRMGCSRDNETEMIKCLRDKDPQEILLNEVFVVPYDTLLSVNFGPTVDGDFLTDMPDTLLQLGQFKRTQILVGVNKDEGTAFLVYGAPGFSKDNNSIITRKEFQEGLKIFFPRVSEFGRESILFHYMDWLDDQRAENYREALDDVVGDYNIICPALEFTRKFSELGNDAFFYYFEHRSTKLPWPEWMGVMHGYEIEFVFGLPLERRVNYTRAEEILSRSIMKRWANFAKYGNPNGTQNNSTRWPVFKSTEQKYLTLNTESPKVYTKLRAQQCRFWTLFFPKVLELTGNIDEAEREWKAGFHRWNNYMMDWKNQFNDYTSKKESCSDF
T1 sequence (P56817 whole entry): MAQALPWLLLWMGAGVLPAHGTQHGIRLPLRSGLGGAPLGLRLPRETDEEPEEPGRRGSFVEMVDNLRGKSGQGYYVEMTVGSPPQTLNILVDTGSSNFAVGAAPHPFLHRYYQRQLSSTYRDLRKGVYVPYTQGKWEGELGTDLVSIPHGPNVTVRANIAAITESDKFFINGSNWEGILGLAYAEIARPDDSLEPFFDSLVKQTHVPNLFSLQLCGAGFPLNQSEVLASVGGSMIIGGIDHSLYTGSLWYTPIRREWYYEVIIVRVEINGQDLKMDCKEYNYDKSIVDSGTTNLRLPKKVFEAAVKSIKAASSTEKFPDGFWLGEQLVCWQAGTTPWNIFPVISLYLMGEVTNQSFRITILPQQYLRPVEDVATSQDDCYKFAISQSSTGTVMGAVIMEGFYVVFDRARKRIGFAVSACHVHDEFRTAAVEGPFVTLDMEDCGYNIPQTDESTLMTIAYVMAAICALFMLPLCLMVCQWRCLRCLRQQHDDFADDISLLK
Chain of Amyloid-beta precursor protein (Homo sapiens) (P05067 whole entry): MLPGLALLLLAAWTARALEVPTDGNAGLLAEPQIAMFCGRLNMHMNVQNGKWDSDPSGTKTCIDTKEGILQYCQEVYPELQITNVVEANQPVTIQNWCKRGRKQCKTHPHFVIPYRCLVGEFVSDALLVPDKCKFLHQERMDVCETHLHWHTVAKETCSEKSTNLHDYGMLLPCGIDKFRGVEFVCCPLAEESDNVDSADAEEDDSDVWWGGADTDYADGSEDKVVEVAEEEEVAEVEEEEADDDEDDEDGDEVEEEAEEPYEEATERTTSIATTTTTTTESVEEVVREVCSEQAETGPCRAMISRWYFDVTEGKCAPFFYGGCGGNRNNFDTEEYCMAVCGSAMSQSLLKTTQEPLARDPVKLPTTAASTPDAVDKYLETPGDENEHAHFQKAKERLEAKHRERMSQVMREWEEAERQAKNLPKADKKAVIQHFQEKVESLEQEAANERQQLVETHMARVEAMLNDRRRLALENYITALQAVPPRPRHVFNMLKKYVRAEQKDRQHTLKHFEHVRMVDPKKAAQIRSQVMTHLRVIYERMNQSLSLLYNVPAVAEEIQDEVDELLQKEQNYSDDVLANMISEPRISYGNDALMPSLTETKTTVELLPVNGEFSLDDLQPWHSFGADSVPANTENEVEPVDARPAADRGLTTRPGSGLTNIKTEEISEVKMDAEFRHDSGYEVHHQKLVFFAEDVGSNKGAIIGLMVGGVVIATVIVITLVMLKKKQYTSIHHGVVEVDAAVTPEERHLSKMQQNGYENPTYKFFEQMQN

SMILES | inhibition (Beta-secretase 1 [1]) [%] | inhibition (Cholinesterase [2]) [%] | inhibition [3] [%] | IC50 (Cholinesterase [4]) [µM] | inhibition [5] [%] | IC50 (Beta-secretase 1 [6]) [µM] | inhibition [7] [%] | inhibition [8] [%] | inhibition [9] [%] | inhibition [10] [%] | IC50 (Cholinesterase [11]) [µM] | IC50 [12] [µM] | IC50 (GABA transporter 4) [µM]
COc1cccc(CNC[C@@H](O)[C@H](Cc2ccccc2)NCCC(c2ccccc2)c2ccccc2)c1 | 50.6 | 55.4 | < 10 | 2.04 | 34.7 | – | – | – | – | – | – | – | –
O=C(CC(c1ccccc1)c1ccccc1)N[C@@H](Cc1ccccc1)[C@@H](O)CNCc1ccccc1 | – | 67.7 | < 10 | – | 20.5 | 17.4 | 76 | 61 | 74 | 83 | – | – | –
O=C(N[C@@H](Cc1ccccc1)[C@H](O)CNCc1ccccc1)C(c1ccccc1)c1ccccc1 | 56.2 | 34.1 | < 10 | 1.51 | – | – | – | – | – | – | – | – | –
O=C(CC(c1ccccc1)c1ccccc1)N[C@@H](Cc1ccccc1)[C@H](O)CNCc1ccccc1 | – | 62.3 | < 10 | – | 20.5 | 35.4 | – | – | – | – | – | – | –
CC(C)(C)NC[C@H](O)[C@H](Cc1ccccc1)NC(=O)CC(c1ccccc1)c1ccccc1 | < 10 | < 10 | < 10 | 11.8 | 20.5 | – | – | – | – | – | – | – | –
O=C(N[C@@H](Cc1ccccc1)[C@@H](O)CNCc1cccc(C(F)(F)F)c1)C(c1ccccc1)c1ccccc1 | – | – | < 10 | 0.39 | – | 8.6 | – | – | – | – | 0.67 | – | –
C[C@H](NC[C@@H](O)[C@H](Cc1ccccc1)NCCC(c1ccccc1)c1ccccc1)c1ccccc1 | 62 | 72.5 | < 10 | 0.98 | 34.7 | – | – | – | – | – | – | – | –
COc1ccccc1CNC[C@H](O)[C@H](Cc1ccccc1)NC(=O)C(c1ccccc1)c1ccccc1 | 66.2 | – | < 10 | 0.11 | 20.5 | – | 69 | – | – | 80 | 0.54 | 87.1 | 20
COc1cccc(CNC[C@@H](O)[C@H](Cc2ccccc2)NC(=O)C(c2ccccc2)c2ccccc2)c1 | 37 | 56.5 | < 10 | 1.55 | 20.5 | – | 67 | 61 | 61 | 85 | – | – | 33.1
CC(C)(NC[C@@H](O)[C@H](Cc1ccccc1)NC(=O)CC(c1ccccc1)c1ccccc1)c1ccccc1 | – | 13.3 | < 10 | 3.23 | 20.5 | 8.9 | – | – | – | – | – | – | –
COc1cccc(CNC[C@@H](O)[C@H](Cc2ccccc2)NC(=O)CC(c2ccccc2)c2ccccc2)c1 | 49 | – | < 10 | 1.28 | 20.5 | – | 92 | 67 | – | 65 | 0.44 | – | 5.89
CC(C)(C)c1cccc(CNC[C@@H](O)[C@H](Cc2ccccc2)NC(=O)CC(c2ccccc2)c2ccccc2)c1 | – | 77.3 | < 10 | 0.45 | 20.5 | 6 | – | – | – | – | – | – | –
O=C(N[C@@H](Cc1ccccc1)[C@@H](O)CNCc1ccccc1)C(c1ccccc1)c1ccccc1 | 66.1 | 40.5 | < 10 | 0.23 | – | – | 52 | – | – | 74 | – | 34.7 | 26.9
CC(C)(C)NC[C@H](O)[C@H](Cc1ccccc1)NCCC(c1ccccc1)c1ccccc1 | 51.3 | 68.5 | < 10 | 0.19 | 34.7 | – | – | – | – | – | – | – | –
CC(C)(C)CNC[C@@H](O)[C@H](Cc1ccccc1)NC(=O)CC(c1ccccc1)c1ccccc1 | – | 46.2 | < 10 | 2.77 | – | 33.6 | – | – | – | – | – | – | –
O[C@H](CNCc1ccccc1)[C@H](Cc1ccccc1)NCCC(c1ccccc1)c1ccccc1 | 55.3 | 71.7 | < 10 | 1.54 | 34.7 | – | – | – | – | – | – | – | –
CC(C)c1cccc(CNC[C@H](O)[C@H](Cc2ccccc2)NC(=O)C(c2ccccc2)c2ccccc2)c1 | – | 74.9 | < 10 | 0.2 | – | 3.4 | – | – | – | – | – | – | –
CC(C)(NC[C@@H](O)[C@H](Cc1ccccc1)NCCC(c1ccccc1)c1ccccc1)c1ccccc1 | 71.8 | 53.2 | < 10 | 1.6 | 34.7 | – | – | – | – | – | – | – | –
O[C@H](CNCc1ccccc1)[C@H](Cc1ccccc1)NCC(c1ccccc1)c1ccccc1 | 42 | – | < 10 | 0.95 | – | – | – | – | – | – | 0.32 | – | –
COc1ccccc1CNC[C@H](O)[C@H](Cc1ccccc1)NCC(c1ccccc1)c1ccccc1 | 55.2 | – | < 10 | 0.32 | 81.4 | – | – | – | – | – | 0.58 | – | –
O=C(N[C@@H](Cc1ccccc1)[C@H](O)CNCC1CC1)C(c1ccccc1)c1ccccc1 | 44.4 | 12.3 | < 10 | 3.21 | 20.5 | – | 54 | 51 | 85 | 74 | – | – | 74.1
COc1ccccc1CNC[C@H](O)[C@H](Cc1ccccc1)NCCC(c1ccccc1)c1ccccc1 | 65.5 | – | < 10 | 1.01 | 34.7 | – | – | – | – | – | 0.8 | – | –
CC(C)c1cccc(CNC[C@@H](O)[C@H](Cc2ccccc2)NCCC(c2ccccc2)c2ccccc2)c1 | – | 67.4 | 25.9 | 1.84 | 34.7 | 6.6 | – | – | – | – | – | – | –
CC(C)(C)NC[C@H](O)[C@H](Cc1ccccc1)NC(=O)C(c1ccccc1)c1ccccc1 | < 10 | 35.5 | < 10 | 0.84 | 20.5 | – | – | – | – | – | – | – | –
CC(C)(C)c1ccc(CNC[C@H](O)[C@H](Cc2ccccc2)NC(=O)C(c2ccccc2)c2ccccc2)cc1 | – | – | < 10 | 3.44 | 20.5 | 2.1 | – | – | – | – | 0.2 | – | –
C[C@H](NC[C@@H](O)[C@H](Cc1ccccc1)NCC(c1ccccc1)c1ccccc1)c1ccccc1 | 53.9 | – | < 10 | 0.95 | 34.7 | – | – | – | – | – | 0.92 | – | –
CC(C)(C)c1cccc(CNCC(O)CNCCC(c2ccccc2)c2ccccc2)c1 (configuration not stated) | – | – | 21.8 | 2.92 | – | 41.6 | – | – | – | – | 5.74 | – | –
COc1ccccc1CNC[C@H](O)[C@H](Cc1ccccc1)NC(=O)CC(c1ccccc1)c1ccccc1 | – | – | < 10 | 0.33 | 20.5 | 23.4 | – | – | – | – | 0.35 | – | –
